PubChem BioAssay (NCI)
Values joined by “and” are separate entries in the source; they are usually repeats but may differ in a detail not shown here. Equal values may be shown once.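 Five compound concentrations were applied to cells in 96-well plates for 48 hours; endpoints were derived by simple linear interpolation of the resulting dose-response curve. At the GI50, growth is halved. Definition used: TGI = concentration required for complete inhibition of growth.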

What was measured:
Test in all cases: DTP human tumour cell line panel, 48 h
[1] = tested on: COLO 205 colon
[2] = tested on: M14 melanoma
[3] = tested on: MALME-3M melanoma
[4] = tested on: OVCAR-8 ovarian
[5] = tested on: RPMI-8226 leukemia
[6] = tested on: RXF 393 renal
[7] = tested on: SNB-19 CNS
[8] = tested on: SW-620 colon
[9] = tested on: TK-10 renal
[10] = tested on: UACC-257 melanoma

SMILES	GI50 [1]	TGI [1]	GI50 [2]	TGI [2]	GI50 [3]	TGI [3]	GI50 [4]	TGI [4]	GI50 [5]	TGI [5]	GI50 [6]	TGI [6]	GI50 [7]	TGI [7]	GI50 [8]	TGI [8]	GI50 [9]	TGI [9]	GI50 [10]	TGI [10]
NS(=O)(=O)c1ccc(N2N=C3c4ccccc4CC3C2c2ccc(Cl)cc2)cc1 (configuration not stated)	4.99 µM	> 100 µM	10.1 µM	36.1 µM	4.23 µM	19.6 µM	11.8 µM	33.4 µM	2.73 µM	24 µM	5.07 µM	19.7 µM	17.3 µM	> 100 µM	4.71 µM	29.8 µM	8.32 µM	27.3 µM	11.4 µM	32.6 µM
COc1ccc(NC(=O)c2sc3nc(C)c(C(O)c4ccccc4)cc3c2N)cc1 (configuration not stated)	3.08 µM	13.9 µM	2.52 µM	38.3 µM	3.22 µM	44.9 µM	4.01 µM	> 100 µM	2.4 µM	14.4 µM	2.25 µM	49.1 µM	5.24 µM	> 100 µM	2.64 µM	28.1 µM	5.39 µM	> 100 µM	3.86 µM	46.1 µM
COc1ccc([N+](=O)[O-])c(S(=O)(=O)c2ccc(Cl)cc2)n1	1.96 µM	3.88 µM	3.05 µM	10.1 µM	2 µM	4.08 µM	3.67 µM	15.9 µM	3.38 µM	51.9 µM	4.45 µM	16.2 µM	13 µM	29.2 µM	2.06 µM	4.65 µM	3.57 µM	11.7 µM	11.3 µM	23.7 µM
CN(C)CCCc1c[nH]c2ccccc12	–	> 100 µM	–	> 100 µM	–	> 100 µM	–	> 100 µM	–	> 100 µM	–	> 100 µM	–	> 100 µM	–	> 100 µM	–	> 100 µM	–	> 100 µM
Nc1c(C(=O)Nc2ccccc2Cl)sc2nc3c(cc12)CCCCCC3	8.52 µM	> 100 µM	2.25 µM	95.1 µM	2.62 µM	9.33 µM	4.11 µM	30.5 µM	> 100 µM	> 100 µM	1.85 µM	3.98 µM	2.93 µM	20.5 µM	3.14 µM	> 100 µM	2.4 µM	6.22 µM	11.1 µM	> 100 µM
CCC(=C/[C@H](C)C/C=C/C(C)=C/[C@@H](C)C(=O)[C@@H](C)[C@H](O)[C@@H](C)CC)/C=C/[C@H]1OC(=O)C=C[C@H]1C	< 0.01 µM	0.0684 µM	< 0.01 µM	0.132 µM	< 0.01 µM	–	< 0.01 µM	1.27 µM	< 0.01 µM	0.0421 µM	< 0.01 µM	< 0.01 µM	< 0.01 µM	1.29 µM	< 0.01 µM	1.9 µM	< 0.01 µM	1.52 µM	< 0.01 µM	1.55 µM
COc1cc(/C=C2\COc3ccc(O)c(O)c3C2=O)cc(OC)c1	1.75 µM	5.68 µM	1.56 µM	4.55 µM	1.82 µM	6.08 µM	0.944 µM	18.3 µM	0.558 µM	4.17 µM	1.47 µM	3.01 µM	2.17 µM	7.47 µM	1.22 µM	4 µM	2.26 µM	6.89 µM	1.79 µM	4.97 µM
COc1cc2nc(Nc3cccc(F)c3)nc(Nc3cc(C)[nH]n3)c2cc1OC	2.25 µM	4.99 µM	1.64 µM	3.22 µM	1.86 µM	3.55 µM	1.76 µM	5.61 µM	1.69 µM	5.6 µM	1.81 µM	3.22 µM	1.95 µM	4.05 µM	1.84 µM	3.75 µM	1.82 µM	3.68 µM	1.87 µM	3.64 µM
C=C1C(=O)O[C@H]2[C@H]1CC/C(COC(=O)NCc1c[nH]c3ccc(Cl)cc13)=C\CC[C@@]1(C)O[C@@H]21	1.19 µM	2.69 µM	1.4 µM	2.91 µM	1.68 µM	3.34 µM	1.38 µM	3.36 µM	0.836 µM	3.51 µM	1.37 µM	2.76 µM	3.72 µM	14.7 µM	0.657 µM	2.2 µM	1.61 µM	2.98 µM	1.63 µM	3.11 µM
COc1ccc2nc3ccccc3c(NCCCCCCN(C)CCCl)c2c1	–	1.52 µM	–	2.3 µM	–	2.06 µM	–	1.81 µM	–	1.19 µM	–	1.23 µM	–	2.77 µM	–	1.52 µM	–	4.91 µM	–	3.19 µM
COC1=CC(c2ccc[nH]2)=N/C1=C\c1[nH]c(C)c(C(=O)CCCCC(=O)Nc2ccccc2)c1C	1.75 µM	3.8 µM	2.01 µM	4.51 µM	1.28 µM	3.16 µM	2.02 µM	4.82 µM	0.142 µM	1.82 µM	1.03 µM	2.23 µM	6.09 µM	20.8 µM	1.02 µM	2.34 µM	1.66 µM	3.38 µM	12.2 µM	34 µM
COC(=O)C(Cl)=C1CC1	–	38.3 µM	–	30.5 µM	–	46.5 µM	–	97.9 µM	–	60.4 µM	–	35.8 µM	–	> 100 µM	–	37.1 µM	–	> 100 µM	–	> 100 µM
COc1ccc(/C=C/c2n[nH]c3ccc(N4CCOC4=O)cc23)cc1	0.501 µM	3.05 µM	1.88 µM	10.5 µM	4.3 µM	8.66 µM	2.31 µM	> 100 µM	2.2 µM	5.55 µM	1.87 µM	3.8 µM	3.12 µM	> 100 µM	1.64 µM	10.8 µM	3.12 µM	26.2 µM	3.6 µM	9.3 µM
Cc1ccc(S(=O)(=O)N2CCc3ccc(O)c4c3C2Cc2cc(Cl)ccc2-4)cc1 (configuration not stated)	8.12 µM	26.2 µM	0.88 µM	2.96 µM	2.59 µM	9.62 µM	1.21 µM	5.83 µM	0.875 µM	2.6 µM	0.83 µM	2.49 µM	1.48 µM	14.8 µM	1.2 µM	9.35 µM	2.18 µM	13.1 µM	1.45 µM	7.08 µM
CC(C)(C)C(=O)C1CC(=O)c2ccccc2C1=O (configuration not stated)	–	> 100 µM	–	> 100 µM	–	31.4 µM	–	> 100 µM	–	64.8 µM	–	80.6 µM	–	> 100 µM	–	> 100 µM	–	> 100 µM	–	46.1 µM
C[C@@]12CCC(=O)C=C1CC[C@H]1C2=CC[C@]2(C)C1CC[C@@]2(C)O (some centres not stated)	–	> 100 µM	–	> 100 µM	–	> 100 µM	–	> 100 µM	–	> 100 µM	–	> 100 µM	–	> 100 µM	–	> 100 µM	–	> 100 µM	–	> 100 µM
COC1=CC(c2ccc[nH]2)=N/C1=C\c1ccc[nH]1	0.0897 µM	5.7 µM	0.0562 µM	0.629 µM	0.723 µM	4.25 µM	0.232 µM	20.5 µM	0.0651 µM	0.57 µM	0.378 µM	2.7 µM	3.17 µM	18.4 µM	0.0393 µM	13.8 µM	0.232 µM	7.79 µM	0.375 µM	9.24 µM
COc1ccc(-c2ccc(C3CC(c4ccc(Cl)cc4)=NN3)o2)c([N+](=O)[O-])c1 (configuration not stated)	> 100 µM	> 100 µM	> 100 µM	> 100 µM	> 100 µM	> 100 µM	> 100 µM	> 100 µM	> 100 µM	> 100 µM	> 100 µM	> 100 µM	> 100 µM	> 100 µM	> 100 µM	> 100 µM	> 100 µM	> 100 µM	> 100 µM	> 100 µM
NS(=O)(=O)c1ccc(CCN=C=S)cc1	2.15 µM	4.52 µM	2.09 µM	4.51 µM	2.22 µM	5.35 µM	3.15 µM	10.3 µM	0.667 µM	5.2 µM	1.62 µM	3.18 µM	2.92 µM	9.26 µM	1.84 µM	3.96 µM	0.987 µM	3.79 µM	2.74 µM	9.24 µM
COc1cc(-c2cc(-c3nc4ccc(Cl)cc4[nH]3)[nH]n2)cc(OC)c1OC	3.18 µM	10 µM	2.92 µM	9.96 µM	2.58 µM	8.32 µM	2.26 µM	5.59 µM	1.65 µM	4.21 µM	3.26 µM	14.5 µM	7.25 µM	20.4 µM	4.99 µM	18.6 µM	3.52 µM	15.8 µM	2.6 µM	7.55 µM
CS(=O)(=O)Nc1ccc(Nc2c3ccccc3nc3ccccc23)cc1	–	21 µM	–	17.5 µM	–	12.2 µM	–	32.6 µM	–	31 µM	–	23.3 µM	–	20.3 µM	–	19.9 µM	–	9.52 µM	–	8.44 µM
Nc1ccn(C2CC(CO)C(O)C2O)c(=O)n1 (configuration not stated)	–	> 57.7 µM	–	> 57.7 µM	–	> 57.7 µM	–	> 57.7 µM	–	> 57.7 µM	–	> 57.7 µM	–	> 57.7 µM	–	> 57.7 µM	–	> 57.7 µM	–	> 57.7 µM
CO[C@@H]1[C@H](OC(=O)NC(=O)CCl)CC[C@]2(CO2)[C@H]1[C@@]1(C)O[C@@H]1CC=C(C)C	9.44 µM and 2.54 µM	31.5 µM and 35.7 µM	–	32.3 µM and 40.5 µM	4.16 µM	18.5 µM and 18.7 µM	–	79.9 µM	5.73 µM and 6.14 µM	32.9 µM and 51.4 µM	4.08 µM and 23.7 µM	27.9 µM and 131 µM	6.01 µM	45.4 µM and 69.1 µM	5.73 µM and 4.16 µM	51.7 µM and 41.3 µM	14.1 µM	41.3 µM and 41.7 µM	8.41 µM	28 µM
COc1ccccc1CNCCCN1C(=O)c2ccc3c4c(ccc(c24)C1=O)C(=O)N(CCCNCCCN)C3=O	0.456 µM	1.85 µM	0.972 µM	2.71 µM	0.898 µM	2.2 µM	0.0735 µM	2.83 µM	0.581 µM	4.88 µM	0.246 µM	1.93 µM	0.605 µM	4.05 µM	0.105 µM	1.79 µM	1.57 µM	6.36 µM	0.607 µM	1.98 µM
COC(=O)CCC/C=C\C[C@H]1C=CC(=O)/C1=C/C[C@@H](O)C/C=C\CC(F)(F)F	2.03 µM	4.58 µM	1.5 µM	4.39 µM	2.39 µM	7.03 µM	3.3 µM	13.4 µM	1.26 µM	7.9 µM	1.98 µM	3.66 µM	2.99 µM	14.2 µM	1.89 µM	12.4 µM	3.22 µM	10.8 µM	2.54 µM	7.82 µM
CC1C=CC(=O)C(n2cc(F)c(=O)[nH]c2=O)O1 (configuration not stated)	–	35.9 µM	–	36.7 µM	–	35.5 µM	–	65.4 µM	–	38.7 µM	–	37.8 µM	–	53.6 µM	–	36.7 µM	–	34.4 µM	–	30 µM
COc1ccc(/C(C)=N/OC(=O)c2c(-c3ccccc3Cl)noc2C)cc1CN1CCOCC1	–	31.3 µM	–	28 µM	–	43.7 µM	–	> 100 µM	–	93.6 µM	–	77.8 µM	–	46.2 µM	–	> 100 µM	–	> 100 µM	–	46.6 µM
COc1ccc(/C=C2\CCC(C)(CN(C)C)C2=O)cc1 (configuration not stated)	–	> 100 µM	–	> 100 µM	–	> 100 µM	–	> 100 µM	–	> 100 µM	–	> 100 µM	–	> 100 µM	–	> 100 µM	–	> 100 µM	–	> 100 µM
